Experimental data as given in patent US11666640B2, “Glucose oxidase compositions as a neonate anticonvulsant” (PENN STATE RESEARCH FOUNDATION, priority 2018, dated 2023).
“Also recorded” adds a separate entry of the source.

Legend:
[1] = tested on: cultured cortical neurons; assay: Epileptiform burst activity in cultured cortical neurons (whole-cell patch-clamp); assay type: cell-based, mouse; conditions: CTZ 10 μM, 24 hrs, blocker 100 μM
Procedure: Mouse cortical neurons were prepared from newborn C57BL/6 mice as previously described. Qi et al., “Cyclothiazide induces robust epileptiform activity in rat hippocampal neurons both in vitro and in vivo” The Journal Of Physiology 571:605-618 (2006). Briefly, the newborn mouse cerebral cortices were dissected out in ice-cold HEPES-buffered saline solution, washed and digested with 0.05% trypsin-EDTA at 37° C. for 20 min. After deactivation of trypsin with serum-containing medium, cells were centrifuged, resuspended, and seeded on a monolayer of cortical astrocytes at a density of 10,000 cells/cm^2 in 24-well plates. The neuronal culture medium contained MEM (500 ml, Invitrogen), 5% fetal bovine serum (Atlanta Biologicals), 10 ml B-27 supplement (Invitrogen), 100 mg NaHCO3, 2 mM Glutamax (Invitrogen), and 25 units/ml penicillin & streptomycin. AraC (4 μM, Sigma) was added to inhibit the excessive proliferation of astrocytes. Cell cultures were maintained in a 5% CO2-humidified incubator at 37° C. for 14-21 days.
The cultured neurons were placed in the recording chamber with continuous perfusion of the bath solution consisting of (mM): 128 NaCl, 10 Glucose, 25 HEPES, 5 KCl, 2 CaCl2, 1 MgSO4, pH 7.3 adjusted with NaOH, and osmolarity ˜300 mOsm. For recording spontaneous firing under current clamp mode, pipettes were filled with an internal solution containing (in mM): 125 K-gluconate, 5 Na-phosphocreatine, 5 EGTA, 10 KCl, 10 HEPES, 4 Mg-ATP, 0.3 Na-GTP, 280-290 mOsm, pH 7.3 adjusted with KOH. Epileptiform activity in cultured neurons was induced either by 10 μM CTZ for 24 h, or 1 μM KA for 2 h, or 50 μM 4-AP for 2 h. The burst activity was defined as previously described. Qi et al., “Cyclothiazide induces robust epileptiform activity in rat hippocampal neurons both in vitro and in vivo” The Journal Of Physiology 571:605-618 (2006). In brief, at least five consecutive action potentials overlaying on top of the large depolarization shift (≥10 mV depolarization and ≥300 ms in duration).

[2] = tested on: Cl− channels; assay: Cl− current recording in cultured cortical neurons; assay type: cell-based, mouse; conditions: blocker 100 μM
[3] = tested on: hippocampal slices; assay: Field potential recording of epileptiform activity in hippocampal slices (CA3 pyramidal layer); assay type: cell-based, mouse; conditions: 100 μm (FIG. 10)
[4] = tested on: GABAA-R reversal potential (EGABA); assay: Gramicidin-perforated whole-cell recording of GABAA-R reversal potential (EGABA) in CA3 pyramidal neurons; assay type: cell-based, mouse; conditions: for positive EGABA shift induced by 0 Mg2+ aCSF: neonatal CA3 neurons; for EGABA in 0 Mg2+ aCSF: neonatal P8-P9, 0 Mg2+ aCSF; for EGABA in 0 Mg2+ aCSF / EGABA in normal aCSF: bumetanide 10 μM, VU0240551 10 μM, NaGcA 20 mM; for EGABA in normal aCSF: neonatal P8-P9
Procedure: To further test this idea, the GABAA-R reversal potential (EGABA), which governs GABA excitatory versus inhibitory function, was directly measured using gramicidin-perforated whole-cell recordings in neonatal mouse brain slices (e.g., P8-P9). As expected, epileptiform activity induced a large depolarizing shift in EGABA after treating hippocampal slices with 0 Mg^2+ aCSF for 1 h (aCSF: −59.2±2.0 mV, n=13; 0 Mg^2+: −48.2±1.1 mV, n=10). FIG. 16D. Treatment with bumetanide (Bum, 10 μM), a specific blocker for NKCC1 at low concentrations, induced a hyperpolarizing shift in EGABA (blue line) as compared to a control EGABA (dashed line). […]. […] Kaila et al., “Cation-chloride cotransporters in neuronal development, plasticity and disease” Nature Reviews. Neuroscience 15:637-654 (2014); Dzhala et al., “NKCC1 transporter facilitates seizures in the developing brain” Nature Medicine 11:1205-1213 (2005); and Loscher et al., “Cation-chloride cotransporters NKCC1 and KCC2 as potential targets for novel antiepileptic and antiepileptogenic treatments” Neuropharmacology 69:62-74 (2013). […] FIG. 16E, yellow line; Bum, −68.0±1.7 mV (n=9); 0 Mg^2++Bum, −50.2±1.4 mV (n=9); (p<0.002).

[5] = tested on: GABA-induced neuronal activity; assay: Cell-attached recording of spike firing elicited by isoguvacine in CA3 pyramidal neurons; assay type: cell-based, mouse; conditions: P8-9, isoguvacine 10 μM, 30 s
Procedure: Besides EGABA, the effects of different drugs on GABA-induced neuronal activity during epileptogenesis were investigated in neonatal animals (e.g., P8-9). To accurately measure GABA-induced neuronal activity, cell-attached recordings monitored spike firing elicited by local application of the GABAA-R agonist isoguvacine (10 μM, 30 s). Tyzio et al., “Maternal oxytocin triggers a transient inhibitory switch in GABA signaling in the fetal brain during delivery” Science 314:1788-1792 (2006). […] FIG. 16K, control, (n=32). […] FIG. 16K, 0 Mg^2+ (n=19). […] FIG. 16K; 0 Mg^2++Bum (n=19); and 0 Mg^2++VU (n=21). […] FIG. 16K; 0 Mg^2++NaGcA (n=18).

[6] = tested on: neonatal seizures; conditions: infant babies, clinical trial (Pressler et al.); cited from earlier work
[7] = tested on: KA induced neonatal seizure; assay: KA-induced neonatal seizure, in vivo EEG recording; set-up: species or system rat; conditions: for reduction of relative EEG power: last 30 min of a 2-hr recording period after KA injection, neonatal
Procedure: For example, neonatal rats were administered gluconate to determine the effect on in vivo epileptic seizures in neonatal and adult animals. […] FIGS. 14A and 14B; Dzhala et al., “NKCC1 transporter facilitates seizures in the developing brain” Nature Medicine 11:1205-1213 (2005). […] FIGS. 14C and 14D.
To test the in vivo anti-epilepsy effects of gluconate in neonatal and adult rodents, P8-12 Sprague-Dawley rats or 2-month old male C57BL/6 mice were deeply anesthetized with pentobarbital sodium (50 mg/kg for neonatal rat and 100 mg/kg for adult mice, intraperitoneal injection). Two stainless steel screws (1 mm in diameter) were inserted in the skull above the cortex as EEG recording electrodes, one ground electrode as well as one reference electrode were located +1.8 mm anterior to bregma, ±0.5 mm lateral to the midline, and 1 mm below the cortical surface. All electrodes were attached to a micro-connector and fixed onto the skull with dental cement. After surgery, neonatal rats were returned to their mothers and allowed to recover for 2 days prior to subsequent EEG recording. The adult mice were single housed in order to prevent damage of the implanted electrodes and allowed to recover at least 5 days before EEG recording.
The baseline of EEG was recorded for 0.5-1 hr to allow the animal to adapt to the environment. Kainic acid (2 mg/kg) was administered intraperitoneally (i.p.) for neonatal epilepsy induction. D-gluconic acid sodium salt (2 g/kg) or 0.9% saline was injected i.p. 10 min after KA administration. Pentylenetetrazol (PTZ) was administered intraperitoneally for inducing a stable epileptic burst activity in adult mice, and D-gluconic acid sodium salt (1 g/kg and 2 g/kg) or 0.9% saline was injected i.p. 10 min before PTZ administration. Epileptiform activity was monitored for 1 hr after PTZ injection. Qian et al., “Epileptiform response of CA1 neurones to convulsant stimulation by cyclothiazide, kainic acid and pentylenetetrazol in anaesthetized rats” Seizure 20:312-319 (2011). After the experiment, animals were injected with diazepam to protect the animals from recurrent epilepsy.
Power was calculated in 1-min time windows by integrating the power of dominant frequency bands from 1 to 100 Hz (EEG band).

[8] = target: T1, CLC-3 Cl− channels (Mus musculus, UniProt P51791); assay: Voltage-dependent outward rectifying Cl− currents in CA3 pyramidal neurons of hippocampal slices; assay type: cell-based; conditions: P8-12 neonatal mice; 20 mM NaGcA, 10 mM Mg(GcA)2, 20 mM gluconic acid
T1 construct: CA3 pyramidal neurons of hippocampal slices from neonatal mice; from tissue; host or cells: acute hippocampal slices (CA3 pyramidal neurons), C57BL/6 mice
T1 sequence (P51791 1-818): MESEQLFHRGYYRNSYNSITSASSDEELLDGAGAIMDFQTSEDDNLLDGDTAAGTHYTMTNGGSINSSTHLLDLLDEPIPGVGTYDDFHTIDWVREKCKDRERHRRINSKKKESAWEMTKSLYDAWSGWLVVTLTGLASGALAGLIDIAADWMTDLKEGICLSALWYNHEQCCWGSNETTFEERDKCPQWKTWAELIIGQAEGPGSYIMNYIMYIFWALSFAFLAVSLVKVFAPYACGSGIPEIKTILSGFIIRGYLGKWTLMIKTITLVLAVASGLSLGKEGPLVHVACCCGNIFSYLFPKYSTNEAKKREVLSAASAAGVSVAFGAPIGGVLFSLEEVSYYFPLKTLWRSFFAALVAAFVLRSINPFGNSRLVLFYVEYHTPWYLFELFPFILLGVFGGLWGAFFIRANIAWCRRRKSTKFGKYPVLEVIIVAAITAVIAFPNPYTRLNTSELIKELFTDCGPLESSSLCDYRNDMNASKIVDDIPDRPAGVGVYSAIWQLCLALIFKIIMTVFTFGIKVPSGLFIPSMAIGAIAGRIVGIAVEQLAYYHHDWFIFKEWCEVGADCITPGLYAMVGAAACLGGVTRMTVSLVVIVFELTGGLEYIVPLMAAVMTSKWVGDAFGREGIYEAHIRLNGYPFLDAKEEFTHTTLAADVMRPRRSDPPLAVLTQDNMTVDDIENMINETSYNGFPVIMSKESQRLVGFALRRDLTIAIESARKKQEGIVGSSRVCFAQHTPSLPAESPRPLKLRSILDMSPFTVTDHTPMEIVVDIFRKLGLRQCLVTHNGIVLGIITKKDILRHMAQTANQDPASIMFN

Molecule: O=S(=O)([O-])c1cc(N=C=S)ccc1C=Cc1ccc(N=C=S)cc1S(=O)(=O)[O-].[Na+].[Na+] [DIDS, 4,4′-Diisothiocyanato-2,2′-stilbenedisulfonic acid disodium salt, reference compound]
- epileptiform activity induced by CTZ ([1]; disodium salt): significantly inhibited; also recorded: potently inhibited
- Cl− currents (inhibition by classic Cl− channel blockers) ([2]; disodium salt): significantly suppressed; also recorded: persistent inhibition

Molecule: O=C(O)c1cccnc1Nc1cccc(C(F)(F)F)c1 [NFA, niflumic acid, reference compound]
- epileptic activity in neonatal hippocampal slices (other Cl− channel blockers) [3]: inhibit neonatal seizures

Molecule: O=C(O)c1cc([N+](=O)[O-])ccc1NCCCc1ccccc1 [NPPB, 5-Nitro-2-(3-phenylpropylamino) benzoic acid, reference compound]
- epileptic activity in neonatal hippocampal slices (other Cl− channel blockers) [3]: inhibit neonatal seizures
- epileptiform activity induced by CTZ [1]: significantly inhibited; also recorded: potently inhibited
- Cl− currents (inhibition by classic Cl− channel blockers) [2]: significantly suppressed; also recorded: inhibited

Molecule: Cc1csc(NC(=O)CSc2ccc(-c3ccccc3)nn2)n1 [VU0240551]
- positive EGABA shift induced by 0 Mg2+ aCSF [4]: no effect
- EGABA in 0 Mg2+ aCSF [4]: −48.9±1.3 mV
- EGABA in normal aCSF [4]: −60.8±1.9 mV
- spike activity elicited by isoguvacine after 0 Mg2+ treatment [5]: did not change

Molecule: CCCCNc1cc(C(=O)O)cc(S(N)(=O)=O)c1Oc1ccccc1 [bumetanide]
- effect in treating neonatal seizure (clinical trial) [6]: very limited effect
- side effects (clinical trial) [6]: severe side effects
- epileptic seizure (burst) activity in EEG ([7]; P10-12, KA 2 mg/kg i.p., drug i.p. 10 min after KA: NaGcA 2 g/kg, phenobarbital 25 mg/kg, bumetanide 2 mg/kg): not as potent as gluconate
- reduction of relative EEG power [7]: 54.3%
- positive EGABA shift induced by 0 Mg2+ aCSF [4]: did not abolish
- EGABA in 0 Mg2+ aCSF [4]: −50.2±1.4 mV
- EGABA in normal aCSF [4]: −68.0±1.7 mV
- spike activity elicited by isoguvacine after 0 Mg2+ treatment [5]: did not change

Molecule: O=C(O)[C@H](O)[C@@H](O)[C@H](O)[C@H](O)CO [gluconic acid]
- Cl− current inhibition by gluconic acid with various counter ions [8]: equivalent Cl− current inhibition

Molecule: CCC1(c2ccccc2)C(=O)NC(=O)NC1=O [phenobarbital, reference compound]
- reduction of relative EEG power [7]: 35.5%

Molecule: magnesium gluconate
- Cl− current inhibition by gluconic acid with various counter ions [8]: equivalent Cl− current inhibition
